Like-named read-outs stand apart in the source and are kept apart here.
Columns and labels:
[1] = system: KP1004 KPC-2; assay: Biapenem potentiation (MPC@1), strain KP1004 KPC-2; assay type: cell-based; settings: minimum BLI concentration inhibiting growth with biapenem 1 μg/mL; tested up to 40 μg/mL
Experimental: (§1) Biapenem was present in the test medium at 1 μg/mL. […] Table 3 summarizes the BLI potency of biapenem potentiation (MPC@1) for two strains overexpressing class A (KPC) and class D (OXA-48) carbapenemases. Biapenem MIC for each strain is also shown.

[2] = system: EC1010 CMY-6; assay: Aztreonam potentiation (MPC@4), strain EC1010 CMY-6; settings: minimum BLI concentration inhibiting growth with aztreonam 4 μg/mL; tested up to 40 μg/mL
[3] = target: T1, purified class A, C and D enzymes (β-lactamases) (Acinetobacter baumannii, UniProt Q9L4P2); assay: biochemical; assay type: biochemical; settings: purified OXA-23; nitrocefin (NCF) as reporter substrate
T1 construct: rows headed: Ki (OXA-23, NCF), uM; other: purified OXA-23; nitrocefin (NCF) as reporter substrate
T1 sequence (Q9L4P2 whole entry): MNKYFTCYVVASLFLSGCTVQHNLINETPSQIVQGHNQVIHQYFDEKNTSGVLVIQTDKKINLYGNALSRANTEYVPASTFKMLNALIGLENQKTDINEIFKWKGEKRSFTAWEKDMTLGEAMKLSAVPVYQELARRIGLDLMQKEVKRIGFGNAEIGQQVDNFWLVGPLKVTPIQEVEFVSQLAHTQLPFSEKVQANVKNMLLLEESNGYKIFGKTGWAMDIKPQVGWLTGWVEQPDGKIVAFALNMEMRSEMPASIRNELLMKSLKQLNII

[4] = target: purified class A, C and D enzymes (β-lactamases) (Klebsiella pneumoniae, UniProt Q6XEC0); assay: biochemical; assay type: biochemical; settings: purified OXA-48; nitrocefin (NCF) as reporter substrate
[5] = target: purified class A, C and D enzymes (β-lactamases) (Escherichia coli, UniProt Q9L5C7); assay: biochemical; assay type: biochemical; settings: purified CTX-M-14; nitrocefin (NCF) as reporter substrate
Sequence of purified class A, C and D enzymes (β-lactamases) (Escherichia coli, UniProt Q9L5C7) (Q9L5C7 entry or part of it): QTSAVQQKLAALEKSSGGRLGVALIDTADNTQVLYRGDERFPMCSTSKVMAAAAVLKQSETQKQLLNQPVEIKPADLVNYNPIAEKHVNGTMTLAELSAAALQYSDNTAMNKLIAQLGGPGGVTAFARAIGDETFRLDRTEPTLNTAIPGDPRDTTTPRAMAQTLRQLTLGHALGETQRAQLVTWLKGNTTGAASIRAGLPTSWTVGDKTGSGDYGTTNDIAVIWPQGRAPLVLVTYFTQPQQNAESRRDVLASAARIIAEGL

[6] = target: T2, purified class A, C and D enzymes (β-lactamases) (Pseudomonas aeruginosa, UniProt P24735); assay: biochemical; assay type: biochemical
T2 construct: rows headed: Ki (Pa-AmpC, NCF), uM; other: purified Pa-AmpC; nitrocefin (NCF) as reporter substrate
T2 sequence (P24735 whole entry): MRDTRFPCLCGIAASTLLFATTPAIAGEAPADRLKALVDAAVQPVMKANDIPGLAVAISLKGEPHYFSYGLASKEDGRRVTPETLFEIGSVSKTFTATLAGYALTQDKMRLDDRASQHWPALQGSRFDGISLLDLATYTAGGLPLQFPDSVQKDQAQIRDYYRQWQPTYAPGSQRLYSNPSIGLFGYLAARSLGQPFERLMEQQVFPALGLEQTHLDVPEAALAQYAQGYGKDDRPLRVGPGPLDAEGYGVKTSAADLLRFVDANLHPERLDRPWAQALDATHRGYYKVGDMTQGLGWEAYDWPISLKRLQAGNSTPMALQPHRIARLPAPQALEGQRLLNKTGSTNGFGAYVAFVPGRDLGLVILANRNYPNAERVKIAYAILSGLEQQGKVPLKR

[7] = target: purified class A, C and D enzymes (β-lactamases) (Klebsiella pneumoniae, UniProt Q9F663); assay: biochemical; assay type: biochemical; settings: purified KPC-2; nitrocefin (NCF) as reporter substrate
[8] = target: purified class A, C and D enzymes (β-lactamases) (Enterobacter cloacae, UniProt P05364); assay: biochemical; assay type: biochemical
Sequence of purified class A, C and D enzymes (β-lactamases) (Enterobacter cloacae, UniProt P05364) (P05364 21-381): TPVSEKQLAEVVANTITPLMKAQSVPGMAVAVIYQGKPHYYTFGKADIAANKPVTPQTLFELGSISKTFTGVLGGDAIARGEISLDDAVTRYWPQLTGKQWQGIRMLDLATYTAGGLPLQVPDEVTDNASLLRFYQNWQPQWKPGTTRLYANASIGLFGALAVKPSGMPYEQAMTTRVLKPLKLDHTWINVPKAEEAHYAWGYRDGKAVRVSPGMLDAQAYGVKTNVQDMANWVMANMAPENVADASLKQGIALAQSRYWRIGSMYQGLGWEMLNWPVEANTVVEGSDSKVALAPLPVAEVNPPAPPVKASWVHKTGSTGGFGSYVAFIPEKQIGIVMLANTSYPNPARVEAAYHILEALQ

[9] = system: AB1054 OXA-23; assay: Meropenem potentiation (MPC@8), strain AB1054 OXA-23; assay type: cell-based, Acinetobacter baumannii; settings: minimum BLI concentration inhibiting growth with meropenem 8 μg/mL; tested up to 20 μg/mL
[10] = system: ECL1002; assay: Aztreonam potentiation (MPC@4), strain ECL1002; settings: minimum BLI concentration inhibiting growth with aztreonam 4 μg/mL; tested up to 40 μg/mL
[11] = system: KP1010 SHV-12; assay: Aztreonam potentiation (MPC@4), strain KP1010 SHV-12; settings: minimum BLI concentration inhibiting growth with aztreonam 4 μg/mL; tested up to 40 μg/mL
[12] = system: KP1004 KPC-2; assay: Aztreonam potentiation (MPC@4), strain KP1004 KPC-2; settings: minimum BLI concentration inhibiting growth with aztreonam 4 μg/mL; tested up to 40 μg/mL
[13] = system: ec308 SHV-5; assay: Aztreonam potentiation (MPC@4), strain ec308 SHV-5; settings: minimum BLI concentration inhibiting growth with aztreonam 4 μg/mL; tested up to 40 μg/mL
[14] = system: AB1053 OXA-72; assay: Meropenem potentiation (MPC@8), strain AB1053 OXA-72; assay type: cell-based, Acinetobacter baumannii; settings: minimum BLI concentration inhibiting growth with meropenem 8 μg/mL; tested up to 20 μg/mL
[15] = system: ec302 TEM-10; assay: Aztreonam potentiation (MPC@4), strain ec302 TEM-10; settings: minimum BLI concentration inhibiting growth with aztreonam 4 μg/mL; tested up to 40 μg/mL
[16] = system: KP1005 CTX-M-14; assay: Tigemonam potentiation (MPC@4), strain KP1005 CTX-M-14; settings: minimum BLI concentration inhibiting growth with tigemonam 4 μg/mL; tested up to 40 μg/mL
[17] = system: KP1009 CTX-M-15; assay: Aztreonam potentiation (MPC@4), strain KP1009 CTX-M-15; settings: minimum BLI concentration inhibiting growth with aztreonam 4 μg/mL; tested up to 40 μg/mL
[18] = system: KP1086 OXA-48; assay: Biapenem potentiation (MPC@1), strain KP1086 OXA-48; assay type: cell-based; settings: minimum BLI concentration inhibiting growth with biapenem 1 μg/mL; tested up to 40 μg/mL
Experimental: as §1

[19] = purified Pa-AmpC, nitrocefin (NCF) as reporter substrate, read-out: Ki (Pa-AmpC, NCF)
[20] = purified P99, nitrocefin (NCF) as reporter substrate

O=C(O)c1c(F)ccc2c1OB(O)COC2 [Compound 58, 8-Fluoro-2-hydroxy-3,5-dihydro-1,4,2-benzodioxaborepine-9-carboxylic acid]
BPM MPC1 KP1004 KPC-2 [1]: X (X = MPC@1 ≤ 5 μg/mL) | AZT MPC4 CMY-6 EC1010 [2]: X (X = MPC@4 ≤ 5 μg/mL) | Ki [3]: 100 to 1000 nM | Ki (OXA-48, NCF), uM [4]: X (X = Ki ≤ 0.1 μM) | Ki (CTX-M-14, NCF), uM [5]: X (X = Ki ≤ 0.1 μM) | Ki [6, 19]: < 100 nM | Ki (KPC-2, NCF), uM [7]: X (X = Ki ≤ 0.1 μM) | Ki (P99, NCF), uM [8, 20]: X (X = Ki ≤ 0.1 μM) | MPM MPC8 AB1054 OXA-23 [9]: Z (Z = MPC@1 > 20 μg/mL) | AZT MPC4 ECL1002 [10]: X (X = MPC@4 ≤ 5 μg/mL) | AZT MPC4 SHV-12 KP1010 [11]: Y (Y = 5 μg/mL < MPC@4 ≤ 20 μg/mL) | AZT MPC4 KPC-2 KP1004 [12]: X (X = MPC@4 ≤ 5 μg/mL) | AZT MPC4 SHV-5 ec308 [13]: Z (Z = MPC@4 > 20 μg/mL) | MPM MPC8 AB1053 OXA-72 [14]: Z (Z = MPC@1 > 20 μg/mL) | AZT MPC4 TEM-10 ec302 [15]: Z (Z = MPC@4 > 20 μg/mL) | TIG MPC4 CTX-M-14 KP1005 [16]: Z (Z = MPC@4 > 20 μg/mL) | AZT MPC4 CTX-M-15 KP1009 [17]: Z (Z = MPC@4 > 20 μg/mL) | BPM MPC1 OXA-48 KP1086 [18]: X (X = MPC@1 ≤ 5 μg/mL)

O=C([O-])c1cncc2c1O[B-](O)(O)CC2.[Na+].[Na+] [Compound 59, Disodium; 4,4-dihydroxy-5-oxa-9-aza-4-boranuidabicyclo[4.4.0]deca-1(6),7,9-triene-7-carboxylate]
BPM MPC1 KP1004 KPC-2 [1]: X (X = MPC@1 ≤ 5 μg/mL) | AZT MPC4 CMY-6 EC1010 [2]: Y (Y = 5 μg/mL < MPC@4 ≤ 20 μg/mL) | Ki [3]: > 1000 nM | Ki (OXA-48, NCF), uM [4]: X (X = Ki ≤ 0.1 μM) | Ki (CTX-M-14, NCF), uM [5]: X (X = Ki ≤ 0.1 μM) | Ki [6]: 100 to 1000 nM | Ki (KPC-2, NCF), uM [7]: X (X = Ki ≤ 0.1 μM) | Ki (P99, NCF), uM [8]: Z (key: X = Ki ≤ 0.1 μM; Y = 0.1 μM < Ki ≤ 1 μM; Z = Ki > 1 μM) | MPM MPC8 AB1054 OXA-23 [9]: Z (Z = MPC@1 > 20 μg/mL) | AZT MPC4 ECL1002 [10]: Z (Z = MPC@4 > 20 μg/mL) | AZT MPC4 SHV-12 KP1010 [11]: X (X = MPC@4 ≤ 5 μg/mL) | AZT MPC4 KPC-2 KP1004 [12]: X (X = MPC@4 ≤ 5 μg/mL) | AZT MPC4 SHV-5 ec308 [13]: Y (Y = 5 μg/mL < MPC@4 ≤ 20 μg/mL) | MPM MPC8 AB1053 OXA-72 [14]: Y (Y = 5 μg/mL < MPC@1 ≤ 20 μg/mL) | AZT MPC4 TEM-10 ec302 [15]: X (X = MPC@4 ≤ 5 μg/mL) | TIG MPC4 CTX-M-14 KP1005 [16]: Z (Z = MPC@4 > 20 μg/mL) | AZT MPC4 CTX-M-15 KP1009 [17]: Y (Y = 5 μg/mL < MPC@4 ≤ 20 μg/mL) | BPM MPC1 OXA-48 KP1086 [18]: X (X = MPC@1 ≤ 5 μg/mL)

[2H]C1([2H])Cc2ccc(OC)c(C(=O)[O-])c2O[B-]1(O)O.[Na+].[Na+] [Compound 60, Disodium; 3,3-dideuterio-4,4-dihydroxy-8-methoxy-5-oxa-4-boranuidabicyclo[4.4.0]deca-1(10),6,8-triene-7-carboxylate]
BPM MPC1 KP1004 KPC-2 [1]: X (X = MPC@1 ≤ 5 μg/mL) | AZT MPC4 CMY-6 EC1010 [2]: X (X = MPC@4 ≤ 5 μg/mL) | Ki [3]: < 100 nM | Ki (OXA-48, NCF), uM [4]: X (X = Ki ≤ 0.1 μM) | Ki (CTX-M-14, NCF), uM [5]: X (X = Ki ≤ 0.1 μM) | Ki [6]: < 100 nM | Ki (KPC-2, NCF), uM [7]: X (X = Ki ≤ 0.1 μM) | Ki (P99, NCF), uM [8]: X (key: X = Ki ≤ 0.1 μM; Y = 0.1 μM < Ki ≤ 1 μM; Z = Ki > 1 μM) | MPM MPC8 AB1054 OXA-23 [9]: X (X = MPC@1 ≤ 5 μg/mL) | AZT MPC4 ECL1002 [10]: X (X = MPC@4 ≤ 5 μg/mL) | AZT MPC4 SHV-12 KP1010 [11]: X (X = MPC@4 ≤ 5 μg/mL) | AZT MPC4 KPC-2 KP1004 [12]: X (X = MPC@4 ≤ 5 μg/mL) | AZT MPC4 SHV-5 ec308 [13]: X (X = MPC@4 ≤ 5 μg/mL) | MPM MPC8 AB1053 OXA-72 [14]: X (X = MPC@1 ≤ 5 μg/mL) | AZT MPC4 TEM-10 ec302 [15]: X (X = MPC@4 ≤ 5 μg/mL) | TIG MPC4 CTX-M-14 KP1005 [16]: X (X = MPC@4 ≤ 5 μg/mL) | AZT MPC4 CTX-M-15 KP1009 [17]: X (X = MPC@4 ≤ 5 μg/mL) | BPM MPC1 OXA-48 KP1086 [18]: X (X = MPC@1 ≤ 5 μg/mL)

O=C([O-])c1c(OCC#CCN2CCC2)ccc2c1O[B-](O)(O)CC2.[Na+].[Na+] [Compound 62, Disodium; 8-[4-(azetidin-1-yl)but-2-ynoxy]-4,4-dihydroxy-5-oxa-4-boranuidabicyclo[4.4.0]deca-1(6),7,9-triene-7-carboxylate]
BPM MPC1 KP1004 KPC-2 [1]: X (X = MPC@1 ≤ 5 μg/mL) | AZT MPC4 CMY-6 EC1010 [2]: X (X = MPC@4 ≤ 5 μg/mL) | Ki [3]: < 100 nM | Ki (OXA-48, NCF), uM [4]: X (X = Ki ≤ 0.1 μM) | Ki (CTX-M-14, NCF), uM [5]: X (X = Ki ≤ 0.1 μM) | Ki [6]: < 100 nM | Ki (KPC-2, NCF), uM [7]: X (X = Ki ≤ 0.1 μM) | Ki (P99, NCF), uM [8]: X (key: X = Ki ≤ 0.1 μM; Y = 0.1 μM < Ki ≤ 1 μM; Z = Ki > 1 μM) | MPM MPC8 AB1054 OXA-23 [9]: X (X = MPC@1 ≤ 5 μg/mL) | AZT MPC4 ECL1002 [10]: X (X = MPC@4 ≤ 5 μg/mL) | AZT MPC4 SHV-12 KP1010 [11]: X (X = MPC@4 ≤ 5 μg/mL) | AZT MPC4 KPC-2 KP1004 [12]: X (X = MPC@4 ≤ 5 μg/mL) | AZT MPC4 SHV-5 ec308 [13]: X (X = MPC@4 ≤ 5 μg/mL) | MPM MPC8 AB1053 OXA-72 [14]: X (X = MPC@1 ≤ 5 μg/mL) | AZT MPC4 TEM-10 ec302 [15]: X (X = MPC@4 ≤ 5 μg/mL) | TIG MPC4 CTX-M-14 KP1005 [16]: Y (Y = 5 μg/mL < MPC@4 ≤ 20 μg/mL) | AZT MPC4 CTX-M-15 KP1009 [17]: X (X = MPC@4 ≤ 5 μg/mL) | BPM MPC1 OXA-48 KP1086 [18]: X (X = MPC@1 ≤ 5 μg/mL)

O=C(O)c1c(CNc2nncs2)ccc2c1OB(O)CC2 [Compound 64, 2-Hydroxy-7-[(1,3,4-thiadiazol-2-ylamino)methyl]-3,4-dihydro-1,2-benzoxaborinine-8-carboxylic acid]
BPM MPC1 KP1004 KPC-2 [1]: X (X = MPC@1 ≤ 5 μg/mL) | AZT MPC4 CMY-6 EC1010 [2]: X (X = MPC@4 ≤ 5 μg/mL) | Ki [3]: < 100 nM | Ki (OXA-48, NCF), uM [4]: X (X = Ki ≤ 0.1 μM) | Ki (CTX-M-14, NCF), uM [5]: X (X = Ki ≤ 0.1 μM) | Ki [6, 19]: < 100 nM | Ki (KPC-2, NCF), uM [7]: X (X = Ki ≤ 0.1 μM) | Ki (P99, NCF), uM [8, 20]: X (X = Ki ≤ 0.1 μM) | MPM MPC8 AB1054 OXA-23 [9]: Y (Y = 5 μg/mL < MPC@1 ≤ 20 μg/mL) | AZT MPC4 ECL1002 [10]: X (X = MPC@4 ≤ 5 μg/mL) | AZT MPC4 SHV-12 KP1010 [11]: X (X = MPC@4 ≤ 5 μg/mL) | AZT MPC4 KPC-2 KP1004 [12]: X (X = MPC@4 ≤ 5 μg/mL) | AZT MPC4 SHV-5 ec308 [13]: X (X = MPC@4 ≤ 5 μg/mL) | MPM MPC8 AB1053 OXA-72 [14]: Y (Y = 5 μg/mL < MPC@1 ≤ 20 μg/mL) | AZT MPC4 TEM-10 ec302 [15]: X (X = MPC@4 ≤ 5 μg/mL) | TIG MPC4 CTX-M-14 KP1005 [16]: Y (Y = 5 μg/mL < MPC@4 ≤ 20 μg/mL) | AZT MPC4 CTX-M-15 KP1009 [17]: X (X = MPC@4 ≤ 5 μg/mL) | BPM MPC1 OXA-48 KP1086 [18]: Y (Y = 5 μg/mL < MPC@1 ≤ 20 μg/mL)
